Results reported in publication PMC9403976, “Elucidating the path to Plasmodium prolyl-tRNA synthetase inhibitors that overcome halofuginone resistance” (Nature Communications, 2022).
Where “and” joins values, the source holds several entries; their conditions need not be identical. Identical values can stand only once. Like-named read-outs stand apart in the source and are kept apart here.

Experiments:
[1] = system: P. falciparum Dd2-2D4; test: P. falciparum asexual blood stage (ABS) growth assay, SYBR Green, 72 h, wild-type parasites; format: cell-based, Plasmodium falciparum; conditions: Plasmodium falciparum, DD2; SI Fig 16b; values on -log scale; read-out: ABS - Dd2-2D4 (converted)
[2] = target: T1, PfcProRS (Plasmodium falciparum, UniProt Q8I5R7); format: binding; conditions: for dose-response signal (normalized), SI Fig 8: single replicates
T1 construct: made in house; host or cells: E. coli SoluBL-21
T1 sequence (Q8I5R7 249-746): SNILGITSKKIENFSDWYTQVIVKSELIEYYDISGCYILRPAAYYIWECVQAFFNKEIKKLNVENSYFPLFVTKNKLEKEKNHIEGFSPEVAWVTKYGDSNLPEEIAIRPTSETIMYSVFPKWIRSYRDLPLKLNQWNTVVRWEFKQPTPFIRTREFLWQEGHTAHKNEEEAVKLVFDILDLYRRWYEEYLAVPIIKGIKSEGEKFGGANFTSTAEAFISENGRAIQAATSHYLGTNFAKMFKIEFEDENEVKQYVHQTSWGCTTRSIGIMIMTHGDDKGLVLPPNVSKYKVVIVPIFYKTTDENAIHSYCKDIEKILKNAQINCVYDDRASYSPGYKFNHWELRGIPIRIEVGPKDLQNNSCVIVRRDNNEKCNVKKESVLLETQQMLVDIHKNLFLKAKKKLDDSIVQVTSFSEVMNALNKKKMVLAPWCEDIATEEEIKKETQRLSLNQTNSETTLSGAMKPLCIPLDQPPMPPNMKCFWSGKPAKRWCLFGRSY

[3] = target: HsProRS (Homo sapiens, UniProt P07814); test: TR-FRET ligand displacement assay with tracer MAT379 (CoraFluor-1-Halo and anti-His6 antibody formats); format: binding; parameters: made in house; host or cells: E. coli SoluBL-21; conditions: for TR-FRET dose-response, normalized signal (SI Fig 11): individual replicates
HsProRS, sequence (P07814 996-1512): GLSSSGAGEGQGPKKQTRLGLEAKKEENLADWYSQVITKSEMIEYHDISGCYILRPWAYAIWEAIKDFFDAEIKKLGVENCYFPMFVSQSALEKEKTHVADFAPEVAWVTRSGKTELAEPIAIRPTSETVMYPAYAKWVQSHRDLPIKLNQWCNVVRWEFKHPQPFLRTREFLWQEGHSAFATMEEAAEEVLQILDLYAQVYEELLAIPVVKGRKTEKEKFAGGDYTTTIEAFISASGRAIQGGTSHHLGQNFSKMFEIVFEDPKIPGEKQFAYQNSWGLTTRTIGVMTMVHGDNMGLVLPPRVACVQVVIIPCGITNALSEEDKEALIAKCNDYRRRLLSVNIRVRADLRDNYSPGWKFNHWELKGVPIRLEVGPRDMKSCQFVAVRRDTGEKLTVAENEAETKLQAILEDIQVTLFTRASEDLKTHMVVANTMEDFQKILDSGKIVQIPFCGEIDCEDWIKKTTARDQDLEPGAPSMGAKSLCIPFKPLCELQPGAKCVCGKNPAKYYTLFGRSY

`CC(C)(C)OC(=O)NCC1CCN(C(=O)Nc2nccnc2C(=O)NC2Cc3ccccc3C2)CC1` [compound 9] was tested, and the EC50 [1] was 6.58 µM, the “dose-response signal (normalized), SI Fig 8” value ([2]; Log[inhibitor] (M) -5.000) was 8.25E-02 and 7.54E-02 and 9.29E-02 and the “dose-response signal (normalized), SI Fig 8” value ([2]; Log[inhibitor] (M) -5.301) was 2.45E-01 and 1.32E-01 and 2.09E-01. For the same compound, the “dose-response signal (normalized), SI Fig 8” value ([2]; Log[inhibitor] (M) -5.601) was 4.06E-01 and 4.09E-01 and 3.31E-01, the “dose-response signal (normalized), SI Fig 8” value ([2]; Log[inhibitor] (M) -5.904) was 5.21E-01 and 6.14E-01 and 5.87E-01 and the “dose-response signal (normalized), SI Fig 8” value ([2]; Log[inhibitor] (M) -6.208) was 7.48E-01 and 8.25E-01 and 7.95E-01. The “dose-response signal (normalized), SI Fig 8” value ([2]; Log[inhibitor] (M) -6.509) was 8.42E-01 and 8.68E-01 and 7.28E-01, the “dose-response signal (normalized), SI Fig 8” value ([2]; Log[inhibitor] (M) -6.796) was 9.11E-01 and 1.04E+00 and 1.02E+00 and the “dose-response signal (normalized), SI Fig 8” value ([2]; Log[inhibitor] (M) -7.108) was 9.58E-01 and 9.39E-01 and 1.04E+00. For the same compound, the “dose-response signal (normalized), SI Fig 8” value ([2]; Log[inhibitor] (M) -7.409) was 9.93E-01 and 1.06E+00 (2×), the “dose-response signal (normalized), SI Fig 8” value ([2]; Log[inhibitor] (M) -7.710) was 1.14E+00 and 1.04E+00 and 9.88E-01 and the “dose-response signal (normalized), SI Fig 8” value ([2]; Log[inhibitor] (M) -8.000) was 9.88E-01 and 1.04E+00 and 1.02E+00. The “dose-response signal (normalized), SI Fig 8” value ([2]; Log[inhibitor] (M) -8.301) was 9.59E-01 and 9.72E-01 and 9.39E-01, the “dose-response signal (normalized), SI Fig 8” value ([2]; Log[inhibitor] (M) -8.602) was 9.15E-01 and 9.90E-01 and 9.70E-01 and the “dose-response signal (normalized), SI Fig 8” value ([2]; Log[inhibitor] (M) -9.000) was 9.95E-01 and 1.01E+00 and 9.84E-01. The “dose-response signal (normalized), SI Fig 8” value ([2]; Log[inhibitor] (M) -9.301) was 1.06E+00 and 9.86E-01 and 9.57E-01, the “PfcProRS -- best Kd” value ([2]; SI Fig 16a, values on -log scale) was 6.452 and the “HsProRS % signal at 10 μM, + 100 μM proline” value ([3]; + 100 μM proline, 10 μM) was 51.7%. The Kd ([3]; HsProRS (KD [nM]) mean, no added proline/ATP (-)) was 2510 nM, the “normalized TR-FRET ligand displacement signal, dose-response replicates (SI Fig 6)” value ([3]; Log[inhibitor] (M) -5.000) was 3.85E-02 and 1.39E-01 and 8.67E-02 and the “TR-FRET dose-response, normalized signal (SI Fig 11)” value ([3]; Log[inhibitor] (M) -5.000) was 2.52E-01 and 2.44E-01 and 2.56E-01. For the same compound, the “normalized TR-FRET ligand displacement signal, dose-response replicates (SI Fig 6)” value ([3]; Log[inhibitor] (M) -5.301) was 2.62E-01 and 9.25E-02 and 2.11E-01, the “TR-FRET dose-response, normalized signal (SI Fig 11)” value ([3]; Log[inhibitor] (M) -5.301) was 3.68E-01 and 3.83E-01 and 3.86E-01 and the “normalized TR-FRET ligand displacement signal, dose-response replicates (SI Fig 6)” value ([3]; Log[inhibitor] (M) -5.601) was 2.47E-01 and 2.95E-01 and 3.23E-01. For the same compound, the “TR-FRET dose-response, normalized signal (SI Fig 11)” value ([3]; Log[inhibitor] (M) -5.601) was 5.41E-01 and 5.42E-01 and 6.20E-01, the “normalized TR-FRET ligand displacement signal, dose-response replicates (SI Fig 6)” value ([3]; Log[inhibitor] (M) -5.904) was 5.08E-01 and 5.80E-01 and 5.13E-01 and the “TR-FRET dose-response, normalized signal (SI Fig 11)” value ([3]; Log[inhibitor] (M) -5.904) was 6.85E-01 and 6.21E-01 and 6.49E-01. The “normalized TR-FRET ligand displacement signal, dose-response replicates (SI Fig 6)” value ([3]; Log[inhibitor] (M) -6.208) was 7.02E-01 and 7.67E-01 and 6.77E-01, the “TR-FRET dose-response, normalized signal (SI Fig 11)” value ([3]; Log[inhibitor] (M) -6.208) was 7.39E-01 and 7.74E-01 and 7.75E-01 and the “normalized TR-FRET ligand displacement signal, dose-response replicates (SI Fig 6)” value ([3]; Log[inhibitor] (M) -6.509) was 8.58E-01 and 7.92E-01 and 7.62E-01. For the same compound, the “TR-FRET dose-response, normalized signal (SI Fig 11)” value ([3]; Log[inhibitor] (M) -6.509) was 8.32E-01 and 8.29E-01 and 7.90E-01, the “normalized TR-FRET ligand displacement signal, dose-response replicates (SI Fig 6)” value ([3]; Log[inhibitor] (M) -6.796) was 9.92E-01 and 1.07E+00 and 1.01E+00 and the “TR-FRET dose-response, normalized signal (SI Fig 11)” value ([3]; Log[inhibitor] (M) -6.796) was 8.79E-01 and 8.03E-01 and 8.17E-01. For the same compound, the “normalized TR-FRET ligand displacement signal, dose-response replicates (SI Fig 6)” value ([3]; Log[inhibitor] (M) -7.108) was 8.83E-01 and 1.03E+00 and 1.07E+00, the “TR-FRET dose-response, normalized signal (SI Fig 11)” value ([3]; Log[inhibitor] (M) -7.108) was 8.15E-01 and 8.66E-01 and 8.33E-01 and the “normalized TR-FRET ligand displacement signal, dose-response replicates (SI Fig 6)” value ([3]; Log[inhibitor] (M) -7.409) was 9.70E-01 and 9.46E-01 and 9.42E-01. For the same compound, the “TR-FRET dose-response, normalized signal (SI Fig 11)” value ([3]; Log[inhibitor] (M) -7.409) was 8.81E-01 and 9.27E-01 and 8.52E-01, the “normalized TR-FRET ligand displacement signal, dose-response replicates (SI Fig 6)” value ([3]; Log[inhibitor] (M) -7.710) was 9.63E-01 and 9.72E-01 and 1.02E+00 and the “TR-FRET dose-response, normalized signal (SI Fig 11)” value ([3]; Log[inhibitor] (M) -7.710) was 8.59E-01 and 8.71E-01 and 8.69E-01. For the same compound, the “normalized TR-FRET ligand displacement signal, dose-response replicates (SI Fig 6)” value ([3]; Log[inhibitor] (M) -8.000) was 9.31E-01 and 9.57E-01 and 9.75E-01, the “TR-FRET dose-response, normalized signal (SI Fig 11)” value ([3]; Log[inhibitor] (M) -8.000) was 9.54E-01 and 9.12E-01 and 8.65E-01 and the “normalized TR-FRET ligand displacement signal, dose-response replicates (SI Fig 6)” value ([3]; Log[inhibitor] (M) -8.301) was 9.41E-01 and 8.96E-01 and 8.89E-01. For the same compound, the “TR-FRET dose-response, normalized signal (SI Fig 11)” value ([3]; Log[inhibitor] (M) -8.301) was 9.04E-01 and 9.25E-01 and 8.91E-01, the “normalized TR-FRET ligand displacement signal, dose-response replicates (SI Fig 6)” value ([3]; Log[inhibitor] (M) -8.602) was 9.58E-01 and 9.45E-01 and 9.24E-01 and the “TR-FRET dose-response, normalized signal (SI Fig 11)” value ([3]; Log[inhibitor] (M) -8.602) was 9.14E-01 and 8.78E-01 and 9.05E-01. For the same compound, the “normalized TR-FRET ligand displacement signal, dose-response replicates (SI Fig 6)” value ([3]; Log[inhibitor] (M) -9.000) was 1.05E+00 and 8.77E-01 and 8.55E-01, the “TR-FRET dose-response, normalized signal (SI Fig 11)” value ([3]; Log[inhibitor] (M) -9.000) was 8.65E-01 and 8.66E-01 and 9.64E-01 and the “normalized TR-FRET ligand displacement signal, dose-response replicates (SI Fig 6)” value ([3]; Log[inhibitor] (M) -9.301) was 8.65E-01 and 9.01E-01 and 8.87E-01. The “TR-FRET dose-response, normalized signal (SI Fig 11)” value ([3]; Log[inhibitor] (M) -9.301) was 9.03E-01 and 9.18E-01 and 8.96E-01.
